Source: patent US5354862A, “Preparation and the use of halopropargylated cyclic quaternary ammonium compounds as antimicrobial agents” (Rohm and Haas Company, priority 1993, dated 1994)
Where two headings read alike, the source gives them in different places.

Tests used:
Assay in all cases: Broth two-fold serial dilution MIC test
Aspergillus niger = format: cell-based, Aspergillus niger (ATCC 6275); conditions: Anig, TSB media
Description: (§1) A minimum inhibitory concentration (MIC) value is obtained using a broth, two-fold serial dilution test performed as follows: A stock solution or dispersion of the test compound, typically at a concentration of 1%, is made in a 5:3:2 solvent solution of acetone. methanol, and water. A volume of the stock solution is dispensed into culture media to give an initial starting test concentration of 500 ppm compound.
(§2) When the test is ready to be done, each vessel in the dilution series, except the first vessel, contains an equal volume of compound free broth. The first vessel contains twice the volume of broth with the starting concentration of test compound. One half of the broth from the first vessel is transferred to the second vessel- After being mixed, one half the resulting volume is removed from the second vessel and transferred to the third vessel. The entire cycle is repeated sufficiently to give a series of concentrations amounting to 500, 250, 125, 63, 31, 16, 8, and 4, 2, 1, 0.5, 0.25 ppm respectively.
(§3) Each vessel is then inoculated with a cell suspension of the appropriate test organism. Bacteria are grown in broth, fungi on agar slants for a time and at a temperature appropriate to the species being tested, and algae are a mixture of green algae and blue-green bacteria grown in a nutrient media. At the end of the growth period, in the case of bacteria, the broth is vortexed to disperse the cells.
(§4) In the case of fungi, the spores are harvested by pipetting water onto the slant and dislodging the spores with a sterile loop. The cell/spore suspension is standardized by controlling incubation time, temperature, and the volume of the diluent. The suspension is then used to inoculate the vessels containing the broth compound.
(§5) The vessels are then incubated at the appropriate temperature. After the incubation, the vessels are examined for growth/no growth. The minimum inhibitory concentration (MIC) is defined as the lowest concentration of compound that results in complete inhibition of growth of the test organism.
4. Aspergillus niger 6275 Anig

Pseudomonas aeruginosa = format: cell-based, Pseudomonas aeruginosa (ATCC 15442); conditions: Psae
Description: as §1, §2, §3, §4, §5
1. Pseudomonas aeruginosa

Escherichia coli = format: cell-based, Escherichia coli (ATCC 11229); conditions: Ecol
Description: as §1, §2, §3, §4, §5

Staphylococcus aureus = format: cell-based, Staphylococcus aureus (ATCC 6538); conditions: Saur
Description: as §1, §2, §3, §4, §5
2. Staphylococcus aureus

[1] = Aspergillus niger, Table 2, read-out: MIC
[2] = Staphylococcus aureus, Table 2, M9G media, read-out: MIC
[3] = Pseudomonas aeruginosa, Table 2, M9G media, read-out: MIC
[4] = Pseudomonas aeruginosa, Table 2, TSB media, read-out: MIC
[5] = Escherichia coli, Table 2, M9G media, read-out: MIC
[6] = Escherichia coli, Table 2, TSB media, read-out: MIC
[7] = Staphylococcus aureus, Table 2, TSB media, read-out: MIC

| Compound | MIC (Aspergillus niger; [1]) [µg/mL] | MIC (Pseudomonas aeruginosa; Table 2, M9G media) [ppm] | MIC (Pseudomonas aeruginosa; Table 2, TSB media) [ppm] | MIC (Escherichia coli; Table 2, M9G media) [ppm] | MIC (Escherichia coli; Table 2, TSB media) [ppm] | MIC (Staphylococcus aureus; [2]) [µg/mL] | MIC (Staphylococcus aureus; Table 2, TSB media) [ppm] | MIC (Aspergillus niger; Table 2) [ppm] | MIC (Staphylococcus aureus; Table 2, M9G media) [ppm] | MIC (Pseudomonas aeruginosa; [3]) [µg/mL] | also measured |
| --- | --- | --- | --- | --- | --- | --- | --- | --- | --- | --- | --- |
| CCCCCCCCCCCCCCC[N+]1(CC#CI)CCCC1 [Compound 10, 1-pentadecyl-1-(3-iodopropargyl)-pyrrolidinium 4-methylbenzenesulfonate] | < 0.25 | 8 | 250 | 4 | 32 | < 0.25 | 1 |  |  |  |  |
| CCCCCCCCCCCCCC[N+]1(CC#CI)CCCCC1 [Compound 85, 1-tetradecyl-1-(3-iodoproparygyl)-piperidinium n-butylsulfonate] |  | 8 | 32 | 1 | 4 |  | 0.25 | 4 | 0.25 |  |  |
| OCCCCCCCC[N+]1(CC#CI)CCCC1 [Compound 3, 1-(8-hydroxyoctyl)-1-(3-iodopropargyl)-pyrrolidinium 4-methylbenzenesulfonate] | > 500 |  |  |  |  | 500 |  |  |  | > 500 | MIC (Pseudomonas aeruginosa; [4]): > 500 µg/mL; MIC (Escherichia coli; [6]): > 500 µg/mL; MIC (Staphylococcus aureus; [7]): > 500 µg/mL |
| CCCCCCCCCCC[N+]1(CC#CI)CCCC1 [Compound 15, 1-undecyl-1-(3-iodopropargyl)-pyrrolidinium 4-methylbenzenesulfonate] | 16 |  |  |  |  | 0.25 |  |  |  | 32 | MIC (Pseudomonas aeruginosa; [4]): 32 µg/mL; MIC (Escherichia coli; [5]): 1 µg/mL; MIC (Escherichia coli; [6]): 2 µg/mL; MIC (Staphylococcus aureus; [7]): 0.25 µg/mL |
| CCCCCCCCCCCCCC[N+]1(CC#CI)CCCC1 [Compound 6, 1-Tetradecyl-1-(3-Iodopropargyl)-Pyrrolidinium 4-Methylbenzenesulfonate] |  | 4 | 4 | 4 | 4 | 0.5 |  | < 0.25 |  |  | MIC (Aspergillus niger; Aspergillus niger, Table 3 comparison, read-out: MIC): < 0.25 µg/mL; MIC (Pseudomonas aeruginosa; Pseudomonas aeruginosa, Table 3 comparison, M9G media, read-out: MIC): 4 µg/mL; MIC (Pseudomonas aeruginosa; Pseudomonas aeruginosa, Table 3 comparison, TSB media, read-out: MIC): 4 µg/mL; MIC (Escherichia coli; Table 3 comparison, M9G media): 4 ppm; MIC (Escherichia coli; Table 3 comparison, TSB media): 4 ppm; MIC (Staphylococcus aureus; [7]): 0.5 µg/mL; MIC (Staphylococcus aureus; Staphylococcus aureus, Table 3 comparison, M9G media, read-out: MIC): 0.5 µg/mL; MIC (Staphylococcus aureus; Staphylococcus aureus, Table 3 comparison, TSB media, read-out: MIC): 0.5 µg/mL |
| CCCCCCCCCCCCCC[N+]1(CC#CI)CCCCC1 [Compound 62, 1-tetradecyl-1-(3-iodopropargyl)-piperidinium methanesulfonate] |  | 16 | 63 | 2 | 4 |  | 0.25 | 0.25 | 0.25 |  |  |
| CCCCCCCCCCCC[N+]1(CC#CI)CCCC1 [Compound 13, 1-dodecyl-1-(3-iodopropargyl)-pyrrolidinium 4-methylbenzenesulfonate] |  |  | 250 | 32 | 32 |  | 16 | 16 | 1 | 32 |  |
| CCCCCCCCCC[N+]1(CC#CI)CCCC1 [Compound 11] | 4 |  |  | 16 | 32 |  | 16 |  | 2 | 250 | MIC (Pseudomonas aeruginosa; [4]): 500 µg/mL |

More lines, main results first:

| MIC (Aspergillus niger; [1]) [µg/mL] | MIC (Pseudomonas aeruginosa; Table 2, M9G media) [ppm] | MIC (Pseudomonas aeruginosa; Table 2, TSB media) [ppm] | MIC (Escherichia coli; Table 2, M9G media) [ppm] | MIC (Escherichia coli; Table 2, TSB media) [ppm] | MIC (Staphylococcus aureus; [2]) [µg/mL] | MIC (Staphylococcus aureus; Table 2, TSB media) [ppm] | MIC (Aspergillus niger; Table 2) [ppm] | MIC (Staphylococcus aureus; Table 2, M9G media) [ppm] | MIC (Pseudomonas aeruginosa; [3]) [µg/mL] | Compound | also measured |
| --- | --- | --- | --- | --- | --- | --- | --- | --- | --- | --- | --- |
|  | > 500 | > 500 | 4 | 63 |  | 0.25 | 4 | 0.5 |  | CCCCCCCCCCCCCCCC[N+]1(CC#CI)CCCC1 [Compound 35, 1-hexadecyl-1-(3-iodopropargyl)-pyrrolidinium methanesulfonate] |  |
| 1 |  |  |  |  | < 0.25 |  |  |  | 4 | CCCCCCCCCCCCCC[N+]1(CC#CI)CCCCCC1 [Compound 45, 1-tetradecyl-1-(3-iodopropargyl)-hexamethyleneiminium 4-methylbenzenesulfonate] | MIC (Pseudomonas aeruginosa; [4]): 4 µg/mL; MIC (Escherichia coli; [5]): < 0.25 µg/mL; MIC (Escherichia coli; [6]): < 0.25 µg/mL; MIC (Staphylococcus aureus; [7]): < 0.25 µg/mL |
|  | 16 | 125 | 2 | 8 |  | 0.5 | 1 | 0.5 |  | CCCCCCCCCCCCCCCC[N+]1(CC#CI)CCCC1 [Compound 80, 1-hexadecyl-1-(3-iodopropargyl)-pyrrolidinium bromide] |  |
|  | 32 | 63 | 1 | 8 |  | < 0.25 | 0.5 | < 0.25 |  | CCCCCCCCCCCCCCC[N+]1(CC#CI)CCCC1 [Compound 38, 1-pentadecyl-1-(3-iodopropargyl)-pyrrolidinium methanesulfonate] |  |
| 16 |  |  |  |  | > 250 |  |  |  | > 250 | CCOC(=O)CC[N+]1(CC#CI)CCCCC1 [Compound 22, 1-(2-ethoxycarbonylethyl)-1-(3-iodopropargyl)-piperidinium 4-methylbenzenesulfonate] | MIC (Pseudomonas aeruginosa; [4]): > 250 µg/mL; MIC (Escherichia coli; [6]): > 250 µg/mL; MIC (Staphylococcus aureus; [7]): > 250 µg/mL |
| 16 | 4 | 16 | 4 | 4 |  | 0.25 |  | 0.25 |  | CCCCCCCCCCCCCCCC[N+]1(CC#CI)CCCCC1 [Compound 26, 1-(hexadecyl)-1-(3-iodopropargyl)-piperidinium 4-methylbenzenesulfonate] |  |
|  | > 500 | > 500 | 16 | 32 |  | 8 | 32 | 2 |  | CCCCCCOC(=O)CCCCC[N+]1(CC#CI)CCCC1 [Compound 84, 1-[5-(hexyloxycarbonyl)]pentyl-1-(3-iodopropargyl)-pyrrolidinium methanesulfonate] |  |
|  | 125 | > 500 | 4 | 8 |  | 4 | 8 | 0.5 |  | CCCCCCCCCCCCCC[N+]1(CC#CI)CCNC1.O=S(=O)([O-])c1ccccc1 (centres unmarked) [Compound 58, 3-(tetradecyt)-3-(3-iodopropargyl)-imidazolidinium benzenesulfonate] |  |
|  | 64 | 125 | 2 | 8 |  | 2 | 32 | 0.25 |  | CCCCCCCCCCCCOC(=O)C[N+]1(CC#CI)CCOCC1 [Compound 76, 4-(dodecyloxycarbonyl)methyl-4-(3-iodopropargyl)-morpholinium methanesulfonate] |  |
|  | 125 | 250 | 2 | 8 |  | 2 | 32 | 1 |  | CCCCCCCCCCOC(=O)C[N+]1(CC#CI)CCCC1 [Compound 70, 1-(decyloxycarbonyl)methyl-1-(3-iodopropargyt)-pyrrolidinium benzenesulfonate] |  |
|  | 32 | 125 | 2 | 8 |  | 2 | 8 | 0.25 |  | CCCCCCCCCCCCOC(=O)C[N+]1(CC#CI)CCCC1 [Compound 75, 1-(dodecyloxycarbonyl)methyl-1-(3-iodopropargyl)-pyrrolidinium methanesulfonate] |  |
| 4 |  |  |  |  | 0.25 |  |  |  | 8 | CCCCCCCCCCCCCCC[N+]1(CC#CI)CCOCC1 [Compound 88, 4-pentadecyl-4-(3-iodopropargyl)-morpholinium methanesulfonate] | MIC (Pseudomonas aeruginosa; [4]): 32 µg/mL; MIC (Escherichia coli; [5]): 2 µg/mL; MIC (Escherichia coli; [6]): 4 µg/mL; MIC (Staphylococcus aureus; [7]): 0.25 µg/mL |
|  | 8 | 32 | 1 | 2 |  | < 0.25 | < 0.25 | < 0.25 |  | CCCCCCCCCCCCCCC[N+]1(CC#CI)CCCC1 [Compound 33, 1-pentadecyl-1-(3-iodopropargyl)-pyrrolidinium benzenesulfonate] |  |
